Legend:
[1] = target: T1, prostate specific membrane antigen (PSMA) (Homo sapiens, UniProt Q04609); assay: competitive radioligand binding on PSMA-positive LNCaP cells vs […]Ga-PSMA-10; format: cell-based
T1 construct: gene FOLH1

[2] = target: T1, prostate specific membrane antigen (PSMA); assay: competitive radioligand binding on PSMA-positive LNCaP cells (reference ligand); format: cell-based

T1 sequence (Q04609 whole entry): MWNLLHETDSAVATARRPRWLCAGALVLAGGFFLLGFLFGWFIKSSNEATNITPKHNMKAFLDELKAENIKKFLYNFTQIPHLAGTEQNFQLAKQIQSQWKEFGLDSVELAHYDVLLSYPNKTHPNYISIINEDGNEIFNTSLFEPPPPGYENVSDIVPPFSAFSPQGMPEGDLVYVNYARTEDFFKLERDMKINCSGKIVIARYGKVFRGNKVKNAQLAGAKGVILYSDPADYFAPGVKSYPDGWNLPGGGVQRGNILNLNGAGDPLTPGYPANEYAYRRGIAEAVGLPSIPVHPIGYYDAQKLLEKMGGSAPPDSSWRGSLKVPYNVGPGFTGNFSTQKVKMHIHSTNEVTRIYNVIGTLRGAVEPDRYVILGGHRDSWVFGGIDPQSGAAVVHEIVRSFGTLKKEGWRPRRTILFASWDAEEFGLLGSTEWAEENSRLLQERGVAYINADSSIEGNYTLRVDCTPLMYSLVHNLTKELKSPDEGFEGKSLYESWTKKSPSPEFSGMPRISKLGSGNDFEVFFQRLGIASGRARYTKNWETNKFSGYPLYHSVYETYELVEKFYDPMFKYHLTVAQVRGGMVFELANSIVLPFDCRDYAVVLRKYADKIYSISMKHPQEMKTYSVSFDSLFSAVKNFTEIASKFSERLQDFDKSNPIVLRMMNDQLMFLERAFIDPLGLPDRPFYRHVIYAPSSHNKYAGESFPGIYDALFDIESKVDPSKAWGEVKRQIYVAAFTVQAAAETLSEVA

IC50 [1] [nM] | Structure (SMILES) | IC50 [2] [nM]
21.5 ± 1.9 | NC[C@H]1CC[C@H](C(=O)N[C@@H](Cc2ccc3ccccc3c2)C(=O)NCCCC[C@H](NC(=O)N[C@@H](CCC(=O)O)C(=O)O)C(=O)O)CC1 [KuE-617] | 
 | O=C(O)CCc1ccc(O)c(CN(CCN(CC(=O)O)Cc2cc(CCC(=O)NCCCCCC(=O)NCCCC[C@H](NC(=O)N[C@@H](CCC(=O)O)C(=O)O)C(=O)O)ccc2O)CC(=O)O)c1 [PSMA-11] | 17.4 ± 1.6
 | O=C(O)CC[C@H](NC(=O)N[C@@H](CCCCNC(=O)[C@H](Cc1ccc2ccccc2c1)NC(=O)[C@H]1CC[C@H](CNC(=O)CN2CCN(CC(=O)O)CCN(CC(=O)O)CCN(CC(=O)O)CC2)CC1)C(=O)O)C(=O)O [PSMA-617] | 15.1 ± 3.8

Source: paper PMC10218109, “Old Drug, New Delivery Strategy: MMAE Repackaged” (International Journal of Molecular Sciences, 2023)
